Laboratory results published in patent US20110105397A1, “METHOD FOR TREATING HEART FAILURE WITH STRESSCOPIN-LIKE PEPTIDES” (priority 2009, published 2011).
Like-named read-outs stand apart in the source and are kept apart here. Where no end group is shown, it is not given here.

T1: human CRHR2 (Homo sapiens, UniProt Q13324)
T1 construct: expressed in transfected cells
T1 sequence (Q13324 1-411): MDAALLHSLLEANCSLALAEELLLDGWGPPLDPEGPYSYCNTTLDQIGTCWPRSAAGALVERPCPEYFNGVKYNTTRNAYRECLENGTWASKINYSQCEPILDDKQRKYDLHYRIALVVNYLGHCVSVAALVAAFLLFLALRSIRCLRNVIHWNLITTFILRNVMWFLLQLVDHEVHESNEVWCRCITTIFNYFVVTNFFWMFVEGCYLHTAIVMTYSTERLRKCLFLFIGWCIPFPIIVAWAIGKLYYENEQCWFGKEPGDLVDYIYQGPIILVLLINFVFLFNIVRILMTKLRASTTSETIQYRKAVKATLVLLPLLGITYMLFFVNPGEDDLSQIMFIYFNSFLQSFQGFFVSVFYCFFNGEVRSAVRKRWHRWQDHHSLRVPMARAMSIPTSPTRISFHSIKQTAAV

T2: human corticotrophin releasing hormone receptor type 2 (CRHR2) (human, UniProt Q13324 1-411)
T2 sequence (looked up): T1 sequence (Q13324 1-411)

T3: human corticotrophin releasing hormone receptor type 2 (CRHR2) (human) (UniProt Q13324)
T3 sequence (looked up): T1 sequence (Q13324 1-411)

T4: human corticotrophin releasing hormone receptor type 1 (CRHR1) (human, UniProt P34998 24-415)
T4 sequence (looked up): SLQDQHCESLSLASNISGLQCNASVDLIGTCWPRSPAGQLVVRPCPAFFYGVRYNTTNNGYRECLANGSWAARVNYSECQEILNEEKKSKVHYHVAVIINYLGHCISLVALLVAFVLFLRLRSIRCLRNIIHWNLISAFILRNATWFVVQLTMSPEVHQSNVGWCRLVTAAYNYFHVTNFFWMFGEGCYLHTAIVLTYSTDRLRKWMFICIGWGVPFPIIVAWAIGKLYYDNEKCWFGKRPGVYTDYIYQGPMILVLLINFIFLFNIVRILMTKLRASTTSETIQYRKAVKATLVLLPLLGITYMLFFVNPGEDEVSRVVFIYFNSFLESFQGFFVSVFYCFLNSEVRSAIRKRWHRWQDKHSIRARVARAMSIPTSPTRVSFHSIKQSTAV


What was measured:
[1] = target: T1, human CRHR2; assay: cAMP assay, h-CRHR2 transfected SK-N-MC cells; assay type: cell-based; settings: for EC50: read-out: pA50 (converted); for Log DR [M]: h-SCP control pA50 minus test compound pA50 within the same assay batch; for αmax: normalized to the maximum response to h-SCP
Outline: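 Intracellular cAMP was quantified by radioligand competition against a cAMP standard curve after HCl lysis of h-CRHR2-transfected SK-N-MC cells. These cells had been exposed to peptides from 1 pM to 1 μM for 1 h at 37 °C with IBMX. Responses were scaled to the daily h-SCP maximum and fitted to the Hill equation to give A50/pA50.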

[2] = target: T2, human corticotrophin releasing hormone …; assay: cell-based or functional assay
[3] = target: T3, human corticotrophin releasing hormone receptor type 2 (CRHR2) (human); assay: radioligand competition against [125I]-anti-sauvagine-30, membranes of SK-N-MC cells with human CRHR2
[4] = target: T3, human corticotrophin releasing hormone receptor type 2 (CRHR2) (human); assay: cell-based or functional assay
[5] = target: T4, human corticotrophin releasing hormone …; assay: cell-based or functional assay
[6] = Table 13, cysteine mutation, N-ethylmaleimide capping, pegylation
[7] = Table 12, amidation and N-terminal deletions, normalized to maximum response to h-SCP, 3-5 replicate experiments

EC50 [1, 6]	Log DR [M] ([1]; Table 13)	Molecule	further results
2.82 nM	1.13	TKFTLSLDVPTNIMNLLFNIACAKNLRAQAAANAHLMAQI-NH2 [SEQ ID NO: 23, TKFTLSLDVPTNIMNLLFNIACAKNLRAQAAANAHLMAQI-NH2]	–
1.74 nM	0.76	TKFTLSLDVPTNIMNLLFNIAKAKNCRAQAAANAHLMAQI-NH2 [SEQ ID NO: 27, TKFTLSLDVPTNIMNLLFNIAKAKNCRAQAAANAHLMAQI-NH2]	–
3.98 nM	1.28	TKFTLSLDVPTNIMNLLFNIAKAKNLRACAAANAHLMAQI-NH2 [SEQ ID NO: 30, TKFTLSLDVPTNIMNLLFNIAKAKNLRACAAANAHLMAQI-NH2]	–
1.15 nM	0.74	TKFTLSLDVPTNIMNLLFNIAKCKNLRAQAAANAHLMAQI-NH2 [SEQ ID NO: 24, TKFTLSLDVPTNIMNLLFNIAKCKNLRAQAAANAHLMAQI-NH2]	–
0.676 nM	0.52	TKFTLSLDVPTNIMNLLFNICKAKNLRAQAAANAHLMAQI-NH2 [SEQ ID NO: 22, TKFTLSLDVPTNIMNLLFNICKAKNLRAQAAANAHLMAQI-NH2]	–

Continued, molecule first:

Molecule	EC50 [1, 6]	Log DR [M] ([1]; Table 13)	further results
TKFTLSLDVPTNIMNLLFNIAKACNLRAQAAANAHLMAQI-NH2 [SEQ ID NO: 25, TKFTLSLDVPTNIMNLLFNIAKACNLRAQAAANAHLMAQI-NH2]	0.676 nM	0.35	–
TKFTLSLDVPTNIMNLLFNIAKAKCLRAQAAANAHLMAQI-NH2 [SEQ ID NO: 26, TKFTLSLDVPTNIMNLLFNIAKAKCLRAQAAANAHLMAQI-NH2]	0.363 nM	0.08	–
TKFTLSLDVPTNIMNLLFNIAKAKNLRAQAAACAHLMAQI-NH2 [SEQ ID NO: 34, TKFTLSLDVPTNIMNLLFNIAKAKNLRAQAAACAHLMAQI-NH2]	~479 nM	>3.19	–
TKFTLSLDVPTNIMNLLFNIAKAKNLRAQAAANACLMAQI-NH2 [SEQ ID NO: 36, TKFTLSLDVPTNIMNLLFNIAKAKNLRAQAAANACLMAQI-NH2]	0.794 nM	0.42	–
TKFTLSLDVPTNIMNLLFNIAKAKNLRAQAAANAHCMAQI-NH2 [SEQ ID NO: 37, TKFTLSLDVPTNIMNLLFNIAKAKNLRAQAAANAHCMAQI-NH2]	2.63 nM	1.05	–
TKFTLSLDVPTNIMNLLFNIAKAKNLRAQAAANAHLCAQI-NH2 [SEQ ID NO: 38, TKFTLSLDVPTNIMNLLFNIAKAKNLRAQAAANAHLCAQI-NH2]	~214 nM	>2.95	–
TKFTLSLDVPTNIMNLLFNIAKAKNLRAQAAANAHLMACI-NH2 [SEQ ID NO: 40, TKFTLSLDVPTNIMNLLFNIAKAKNLRAQAAANAHLMACI-NH2]	0.832 nM	0.55	–
TKFTLSLDVPTNIMNLLFNIAKAKNLRAQAAANAHLMAQC-NH2 [SEQ ID NO: 41, TKFTLSLDVPTNIMNLLFNIAKAKNLRAQAAANAHLMAQC-NH2]	35.5 nM	2.07	–
TKFTLSLDVPTNIMNLLFNIAKAKNLRAQAAANAHLMAQI-OH [SEQ ID NO: 113, TKFTLSLDVPTNIMNLLFNIAKAKNLRAQAAANAHLMAQI]	–	–	fold less potent than the amidated parent peptide [1]: approximately 200 fold; nH ([1]; Table 12): 1.07; EC50 [1, 7]: 79.4 nM; αmax ([1]; Table 12): 107.4
TKFTLSLDVPTNIMNLLFNIAKAKNLRAQCAANAHLMAQI-NH2 [SEQ ID NO: 31, TKFTLSLDVPTNIMNLLFNIAKAKNLRAQCAANAHLMAQI-NH2]	9.55 nM	1.61	–
TLSLDVPTNIMNLLFNIAKAKNLRAQAAANAHLMAQI-NH2 [SEQ ID NO: 108, TLSLDVPTNIMNLLFNIAKAKNLRAQAAANAHLMAQI-NH2]	–	–	nH ([1]; Table 12): 0.82; EC50 [1, 7]: 3.24 nM; αmax ([1]; Table 12): 106.3
LSLDVPTNIMNLLFNIAKAKNLRAQAAANAHLMAQI-NH2 [Stresscopin-like peptide with shortened amino acid sequence, 36 aa, SEQ ID NO: 109]	–	–	pA50 [2]: 7.34 -log10(M)
KFTLSLDVPTNIMNLLFNIAKAKNLRAQAAANAHLMAQI-NH2 [Stresscopin-like peptide with shortened amino acid sequence, 39 aa, SEQ ID NO: 107]	–	–	pA50 [2]: 9.25 -log10(M)
IVLSLDVPIGLLQILLEQARARAAREQATTNARILARV-NH2 [human urocortin 2]	–	–	pKI [3]: 7.74 -log10(M); pA50 [4]: 9.51 -log10(M); pA50 [5]: 6.02 -log10(M)
TLSLDVPTNIMNLLFNIAKAKNLRAQAAANAHLMAQI-NH2 [Stresscopin-like peptide with shortened amino acid sequence, 37 aa, SEQ ID NO: 108]	–	–	pA50 [2]: 8.49 -log10(M)
